Experimental data from US12653900B2, “Antibody drug conjugates comprising ecteinascidin derivatives” (PHARMA MAR, S.A., priority 2018, dated 2026).
Values after ≈ are worked out from the molar mass of the structure shown. Values joined by “and” are separate entries in the source; they are usually repeats but may differ in a detail not shown here. Equal entries are not always repeated. Where two headings read alike, the source gives them in different places.

Experiments:
[1] = test system: HT29; experiment: cells; format: cell-based; details: HT29, 72 hours treatment, SRB
From the text: (§1) Evaluation of Cytotoxic Activity Using the SRB and the MTT Colorimetric Assays

[2] = test system: MDA-MB-231; experiment: cells; format: cell-based; details: MDA-MB-231, 72 hours treatment, SRB
From the text: as §1

[3] = test system: A549; format: cell-based; details: A549, 72 hours treatment, SRB
From the text: as §1

[4] = test system: PSN1; format: cell-based; details: PSN1, 72 hours treatment, SRB
From the text: as §1

[5] = test system: NB 4 (CD13+); experiment: In vitro cytotoxicity of ADCs and related reagents, MTT assay; format: cell-based, human; details: NB-4 cells, geometric mean of the IC50 values of three experiments; for IC50: read-out: IC50 NB-4 (CD13 positive)
Procedure: (§2) Briefly, cells were seeded in 96-well trays and treated as above and after 72 hours of exposure to the tested substances cellular viability was estimated from conversion of MTT (Sigma, St Louis, MO, USA) to its coloured reaction product, MTT-formazan, which was dissolved in DMSO to measure its absorbance at 540 nm in a microplate spectrophotometer.
(§3) Cell survival was expressed as percentage of control, untreated cell survival.

[6] = test system: Raji (CD13−); experiment: as above; format: cell-based, human; details: Raji cells, geometric mean of the IC50 values of three experiments; for IC50: read-out: IC50 Raji (CD13 negative)
Procedure: as §2, §3

[7] = test system: RPMI 8226 (CD13−); experiment: as above; format: cell-based, human; details: RPMI8226 cells, geometric mean of the IC50 values of three experiments; for IC50: read-out: IC50 RPMI8226 (CD13 negative)
Procedure: as §2, §3

[8] = test system: SK-BR-3, HCC-1954, MDA-MB-231 and MCF-7 cells; experiment: In vitro cytotoxicity across the HER2 breast cancer cell panel and HER2 selectivity; format: cell-based
Procedure: For SK-BR-3, HCC-1954, MDA-MB-231 and MCF-7 cells, a colorimetric assay using Sulforhodamine B (SRB) was adapted for quantitative measurement of cell growth and cytotoxicity, as described in V. Vichai and K. Kirtikara. Sulforhodamine B colorimetric assay for cytotoxicity screening. Nature Protocols, 2006, 1, 1112-1116. Briefly, cells were seeded in 96-well microtiter plates and allowed to stand for 24 hours in drug-free medium before treatment with vehicle alone or with the tested substances for 72 hours.
as §3
Standard dose-response (DR) curves for 72 hours incubation with the tested substances were performed.

[9] = test system: HT-1080, NB 4, Raji and RPMI 8226 cells; experiment: In vitro cytotoxicity across the CD13 cell panel and CD13 selectivity; format: cell-based, human; details: CD13 positive and negative cell lines
From the text: as §3

[10] = test system: SK-BR-3 (HER2+); experiment: In vitro cytotoxicity of ADCs and related reagents, SRB assay; format: cell-based; details: Homo sapiens; SK-BR-3, HER2 positive, 72 hours; read-out: IC50
Procedure: (§4) Sulforhodamine B colorimetric assay for cytotoxicity screening. […] Briefly, cells were seeded in 96-well microtiter plates and allowed to stand for 24 hours in drug-free medium before treatment with vehicle alone or with the tested substances for 72 hours.
as §3

[11] = test system: MDA-MB-231 (HER2−); experiment: as above; format: cell-based; details: Homo sapiens; MDA-MB-231, HER2 negative, 72 hours; read-out: IC50
Procedure: as §4, §3

[12] = test system: HCC-1954 (HER2+); experiment: as above; format: cell-based; details: Homo sapiens, HCC1954; HCC-1954, HER2 positive, 72 hours; read-out: IC50
Procedure: as §4, §3

[13] = test system: HT-1080 (CD13+); experiment: In vitro cytotoxicity of ADCs and related reagents, MTT assay; format: cell-based; details: Homo sapiens, read-out: IC50 HT-1080 (CD13 positive); HT-1080 cells; geometric mean of the IC50 values of three experiments
From the text: as §3

[14] = read-out: LC50 (the source's name)
[15] = Homo sapiens, read-out: IC50 values, range over the four cell lines
[16] = Homo sapiens, read-out: geometric mean IC50 value across the whole cell panel

COc1c(C)cc2c(c1O)C1C3C4SCC5(NC(COC(C)=O)Cc6c5[nH]c5ccccc65)C(=O)OCC(c5c6c(c(C)c(OC(C)=O)c54)OCO6)N3C(C#N)C(C2)N1C (stereo not shown) [3a-S]
GI50 [1]: 2.99 nM | TGI [1]: 3.23E-09 Molar | CC50 [1, 14]: > 120 nM | GI50 [2]: 2.87 nM | TGI [2]: 3.59E-09 Molar | CC50 [2, 14]: 4.9 nM | GI50 [3]: 3.11 nM | LC50 (concentration giving 50% net cell kill) [3]: > 120 nM | TGI [3]: 3.23E-09 Molar | GI50 [4]: 2.15 nM | TGI [4]: 3.59E-09 Molar | CC50 [4, 14]: 12 nM

COc1c(C)cc2c(c1O)[C@@H]1[C@@H]3[C@@H]4SC[C@]5(N[C@@H](CN)Cc6c5[nH]c5ccccc65)C(=O)OC[C@@H](c5c6c(c(C)c(OC(C)=O)c54)OCO6)N3[C@@H](C#N)[C@H](C2)N1C [11-R]
IC50 NB-4 (CD13 positive) [5]: 0.46 ng/mL (≈ 0.58 nM) | IC50 [5]: 0.58 nM | IC50 Raji (CD13 negative) [6]: 0.967 ng/mL (≈ 1.22 nM) | IC50 [6]: 1.22 nM | IC50 RPMI8226 (CD13 negative) [7]: 0.928 ng/mL (≈ 1.17 nM) | IC50 [7]: 1.17 nM | geometric mean IC50 value across the whole cell panel ([8]; SK-BR-3, HCC-1954, MDA-MB-231, MCF-7): 0.79 ng/mL | IC50 ([8]; SK-BR-3, HCC-1954, MDA-MB-231, MCF-7, read-out: geometric mean IC50 value across the whole cell panel): 0.994 nM | geometric mean IC50 value across the whole cell panel [9]: 0.84 ng/mL | IC50 ([9]; read-out: geometric mean IC50 value across the whole cell panel): 1.06 nM

COc1c(C)cc2c(c1O)[C@@H]1[C@@H]3[C@@H]4SC[C@]5(N[C@@H](CN)Cc6c5[nH]c5ccccc65)C(=O)OC[C@@H](c5c6c(c(C)c(OC(C)=O)c54)OCO6)N3[C@@H](O)[C@H](C2)N1C [12-R]
IC50 ([5]; Homo sapiens): 0.00033 µg/mL and 0.421 nM | IC50 ([6]; Homo sapiens): 0.00047 µg/mL and 0.6 nM | IC50 ([7]; Homo sapiens, RPMI-8226): 0.00083 µg/mL and 1.06 nM | IC50 [10]: 0.000441 µg/mL and 0.562 nM | IC50 [11]: 0.000493 µg/mL and 0.629 nM | IC50 [12]: 0.00127 µg/mL and 1.62 nM | IC50 [13]: 0.0011 µg/mL and 1.4 nM | IC50 [8, 15]: 0.0004 µg/mL to 0.0013 µg/mL and 0.562 nM to 1.62 nM | IC50 [8, 16]: 0.00071 µg/mL and 0.906 nM | IC50 [9, 15]: 0.0003 µg/mL to 0.0011 µg/mL and 0.421 nM to 1.4 nM | IC50 [9, 16]: 0.0006 µg/mL and 0.78 nM

COc1ccc2[nH]c3c(c2c1)C[C@H](CN)N[C@]31CS[C@@H]2c3c(OC(C)=O)c(C)c4c(c3[C@H](COC1=O)N1[C@@H]2[C@H]2c3c(cc(C)c(OC)c3O)C[C@@H]([C@@H]1O)N2C)OCO4 [27-R]
TGI [1]: 5.53E-10 Molar | TGI [2]: 5.41E-10 Molar | TGI [3]: 3.93E-09 Molar | TGI [4]: 1.17E-09 Molar

COc1ccc2[nH]c3c(c2c1)C[C@@H](CN)N[C@]31CS[C@@H]2c3c(OC(C)=O)c(C)c4c(c3[C@H](COC1=O)N1[C@@H]2[C@H]2c3c(cc(C)c(OC)c3O)C[C@@H]([C@@H]1O)N2C)OCO4 [27-S]
TGI [1]: 1.35E-09 Molar | TGI [3]: 1.12E-08 Molar | TGI [4]: 2.83E-09 Molar
